This note sets out measurements from PubChem BioAssay (NCI).

Experiment in all cases: NCI anticancer screen, dose series, 48 h
Test [1] deals with SN12C renal.
Test [2] concerns M14 melanoma.
Test [3] deals with HCT-116 colon.
For test [4], the system named is K-562 leukemia.
Test [5] concerns MDA-MB-231 breast.
The subject of test [6] is ACHN renal.
For test [7], the system named is SK-MEL-28 melanoma.
Test [8] concerns UACC-257 melanoma.
In test [9] the test system is SF-295 CNS.
Test [10] has as its system OVCAR-5 ovarian.
Test [11] deals with A549 NSCLC.

Molecules are shown by their SMILES. Several values for one entry are separate records, joined by “and”; a condition that tells them apart may be missing. Identical values can stand only once.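 Five concentrations, 48 hours, 96-well plates. Abbreviation: GI50, concentration required for 50% inhibition of growth. TGI denotes the concentration required for complete inhibition of growth.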

Regarding `CN1CCCOC(c2ccc(Cl)cc2)O1` (stereo not given), the TGI in test [1], in [2], in [3], in test [4], in test [5] and in test [6] was greater than 100 µM throughout. In addition, the TGI in test [7], in [8], in test [9], in test [10] and in test [11] was greater than 100 µM throughout.
Turning to `COC(=O)[C@@H](NC(=O)N(Cc1ccccc1)C[C@H](CC(C)C)NC(=O)[C@@H](NC(=O)OC(C)(C)C)C(C)C)C(C)C`, the TGI in [2], in test [3], in test [4], in test [5], in test [6] and in test [7] was greater than 100 µM each time. The TGI in test [8], in [9], in test [10] and in test [11] was greater than 100 µM throughout.
`Cn1nnnc1SC(F)(F)c1nc2ccccc2o1`: the TGI in test [1], in [2], in [3], in [4], in [5] and in test [6] was greater than 100 µM in each case. The TGI in test [7], in test [8], in [9], in test [10] and in test [11] was greater than 100 µM in each case.
In the case of `Cc1ccc(C(=O)NCc2ccccc2)cc1N=NN(C)C`, the TGI in test [1], in [2], in test [3], in [4], in test [5] and in test [6] was greater than 100 µM throughout. Moreover, the TGI in test [7] was greater than 100 µM; in [8] it was 88.2 µM; in [9] it was greater than 100 µM; in test [10] it was greater than 100 µM; in test [11], greater than 100 µM.
For the compound `N/C(=N\S(=O)(=O)c1ccc(-c2ncccc2C(F)(F)F)s1)Nc1ccc(Cl)cc1`, the TGI is 38.3 µM in test [1]; 31.2 µM in [2]; 32.5 µM in [3]; 63.8 µM in test [4]; 27.2 µM in [5]; 30 µM in test [6]. Besides, the TGI in test [7] was found to be 34.4 µM; in [8] it was 14 µM; in test [9] it was 31.6 µM; in test [10], 44 µM; in [11], 36.7 µM.
With `COCCn1cnc2c(Cl)nc(Nc3ccccc3)nc21`, the TGI is 95.4 µM in test [1]; 60.8 µM in test [2]; greater than 100 µM in test [3]; greater than 100 µM in test [4]; 75.6 µM in test [5]; 36.4 µM in [6]. Besides, the TGI in test [7], in test [8], in [9], in test [10] and in [11] was greater than 100 µM each time.
As for `CCC1CC(O)c2c(O)c3c(c(O)c2C1O)C(=O)c1cccc(O)c1C3=O` (stereo not given) (tested in a mixture with another compound), the TGI in [1] was 1.05 µM; in test [2], 0.0434 µM and 0.0173 µM; in test [3] it was 0.741 µM; in [4], 0.0319 µM; in test [5] it was 0.164 µM and 0.404 µM; in [7], 0.0712 µM and 0.0612 µM. The TGI was 0.0941 µM and 0.0404 µM in test [8]; 0.0301 µM in [10]. Also, the GI50 is 0.0118 µM in test [5] and 0.0101 µM in [8].
For the compound `Cc1ccc2c(c1)CC1(Cc3cccc(C)c3C1=O)C2=O` (stereo not given), the TGI in [1], in [2], in [3], in test [4], in test [5] and in [6] was greater than 100 µM in each case. In addition, the TGI in test [7], in [8], in test [9], in [10] and in test [11] was greater than 100 µM each time.
Regarding `CC(=O)SC(C[N+](=O)[O-])c1ccc2c(c1)OCO2` (stereo not given), the TGI in test [1] is 14.7 µM; in [2] it was 15.6 µM; in test [3] it was 5.22 µM; in test [4], greater than 28.7 µM; in test [5], 22.3 µM; in test [6], 21.9 µM. The TGI was 9.78 µM in [7]; 22.3 µM in test [8]; 26.1 µM in test [9]; 16 µM in [10]; 24.1 µM in test [11].
On to `CC(=O)Nc1c(C(=N)C#N)ncn1CCO`, for which the TGI in [1], in test [2], in test [3], in [4], in test [5] and in test [6] was greater than 100 µM each time. Besides, the TGI in test [7], in test [8], in test [9], in [10] and in test [11] was greater than 100 µM each time.
As for `CCOC(=O)C(Cc1ccc(O)cc1)Nc1nc(=O)c2c(=O)oc(Cl)cc2o1` (stereo not given), the TGI in test [1] came out at 36.8 µM; in test [2], 15.1 µM; in test [3], 20.9 µM; in test [4], 31.6 µM; in test [5] it was 23.1 µM; in [6], 24.7 µM. The TGI in [7] worked out at 21 µM; in [8], 29.7 µM; in test [9] it was 29.8 µM; in test [10], 34.7 µM; in test [11] it was 34.7 µM.
For the compound `O=C(Cn1c2ccc(Br)cc2c2nc3ccccc3nc21)NNC(=S)NC1CCCCC1`, the TGI in [1] came to 35.6 µM; in test [2] it was 24.2 µM; in test [3] it was 26.9 µM; in [4], 34.2 µM; in [5], 31.6 µM; in [6], 29.6 µM. Besides, the TGI in [7] turned out to be 31.6 µM; in test [8] it was 30 µM; in test [9] it was 25.7 µM; in test [10], 38.9 µM; in test [11], 22.4 µM.
